According to paper PMC12118337, “Development of a Peptide Inhibitor Targeting the C‐SH2 Domain of the SHP2 Phosphatase” (Chembiochem, 2025):
Non-standard residues stand in square brackets, D forms with d. Residues, ends and D or L forms follow the SMILES beside them. *: point of attachment. 5FAM = O=C1OC2(c3ccc(O)cc3Oc3cc(O)ccc32)c2ccc(C(=O)*)cc21; F2Pmp = N[C@@H](Cc1ccc(C(F)(F)P(=O)(O)O)cc1)C(=O)O; Pmp = N[C@@H](Cc1ccc(CP(=O)(O)O)cc1)C(=O)O; pY = N[C@@H](Cc1ccc(OP(=O)(O)O)cc1)C(=O)O; X1 = O=C(O)C(C(=O)O)*

Assays:
SHP2 N‐SH2 domain = biological target: T1, SHP2 N‐SH2 domain (Homo sapiens, UniProt Q06124); assay: Fluorescence polarization (FP) binding assay, SHP2 N-SH2 domain; conditions: 100 nM FAM-labelled peptide; for Kd: increasing N-SH2 protein, 50 mM HEPES pH 7.5, 150 mM NaCl, 1 mM EDTA, 0.05% Tween 20, FP at 10 min, three independent experiments in technical triplicates, read-out: K D ± SEM, N‐SH2 (FP)
T1 construct: SHP2 N-SH2 domain (1–105), C-SH2 domain (106–220), PTP domain (224–541) and; His6 (pETM22 vector) (N, cleaved yes); made in house; host or cells: E. coli BL21(DE3)
T1 sequence (Q06124 1-105): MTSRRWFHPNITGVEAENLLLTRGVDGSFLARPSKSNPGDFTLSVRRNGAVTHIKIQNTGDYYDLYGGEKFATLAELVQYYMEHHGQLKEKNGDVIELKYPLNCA
Method: (§1) buffer and stored in 5 mL binding buffer at 4°C. His-tagged 3C protease (0.5 mg; EMBL) was added to the pooled eluted fractions and dialysed using Spectra Por Dialysis Tubing (MWCO 6-8 kDa, 23 mm; Spectrum Labs) in 1 L of binding buffer at 4°C for 3 hours, then overnight in fresh buffer. A new column was prepared by loading 2 mL Ni-NTA Agarose (Invitrogen) as a 50% slurry in EtOH. The column was washed with 10 mL H2O to remove the EtOH and equilibrated with 10 mL binding buffer. The protein/3C protease mixture was loaded onto the column and incubated for 1 hour at 4°C on a rocker. The flow through containing the protein was collected, the column was washed with 100 mL binding buffer and the 3C protease was eluted with 5 mL elution buffer. Protein purification was monitored by SDS-PAGE using NuPAGE 4-12% Bis-Tris Protein Gels (Invitrogen) run in MOPS buffer (50 mM MOPS, 50 mM Tris-HCl pH 7.7, 1 mM EDTA, 0.1% SDS) followed by Coomassie staining using Coomassie Brilliant Blue (Roth). The purified protein was dialysed into the final storage buffer (50 mM HEPES pH 7.5, 150 mM NaCl, 2 mM DTT, 20% glycerol). Aliquots were prepared and stored at -80°C until required. […]
(§2) 4. Fluorescence polarization
(§3) Fluorescence polarization (FP) was used to measure the binding of FAM-labelled peptides to the SHP2 C-SH2, SHP2 N-SH2, SHP2 PTP, CSK SH2 or Src SH2 domains. Each peptide was added to increasing concentrations of SHP2 C-SH2, SHP2 N-SH2, SHP2 PTP, CSK SH2 or Src SH2 protein in FP buffer (50 mM HEPES pH 7.5, 150 mM NaCl, 1 mM EDTA, 0.05% Tween 20) to give a final peptide […]
(§4) concentration of 100 nM in a final volume of 200 µL. For baseline subtraction, each peptide was added to FP buffer, instead of protein, with a final peptide concentration of 100 nM in a final volume of 200 µL. Samples were mixed gently then 3 x 60 µL of each sample was transferred into triplicate wells in a 96-well plate (OptiPlate-96 F Black; PerkinElmer). The FP was immediately measured on a Synergy H1 Microplate Reader (BioTek) with the excitation and emission monitored at 485 nm and 528 nm, respectively, over 30 minutes. FP values were automatically calculated by the Gen5 3.03 (BioTek) software associated with the microplate reader. Data were analysed in Excel 2016 by subtracting baseline values from FP values at 10 minutes. Data were then further analysed in GraphPad Prism 6 by plotting the baseline subtracted FP values against the protein concentration and fitting the data to a variable slope model of non-linear regression to obtain the KD values. Data are from three independent experiments, each performed in technical triplicates.
(§5) 5. Isothermal titration calorimetry […]
(§6) Analysis Software (Malvern Panalytical). For the data analysis, a 1:1 binding stoichiometry between the Ac-ITSM(pTyr) and SH2 domain was assumed. ITC measurements were performed once.

SHP2 C‐SH2 domain = biological target: T2, SHP2 C‐SH2 domain (Homo sapiens, UniProt Q06124); assay: Fluorescence polarization (FP) binding assay, SHP2 C-SH2 domain; conditions: 100 nM FAM-labelled peptide; for Kd: read-out: K D ± SEM, C‐SH2 (FP)
T2 construct: SHP2 N-SH2 domain (1–105), C-SH2 domain (106–220), PTP domain (224–541) and; His6 (pETM22 vector) (N, cleaved yes); made in house; host or cells: E. coli BL21(DE3)
T2 sequence (Q06124 106-220): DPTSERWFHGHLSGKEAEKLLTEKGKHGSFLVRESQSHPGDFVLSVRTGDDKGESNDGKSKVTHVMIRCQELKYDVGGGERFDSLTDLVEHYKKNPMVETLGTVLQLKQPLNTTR
Method: as §1, §2, §3, §4, §5, §6

[1] = increasing C-SH2 protein, 50 mM HEPES pH 7.5, 150 mM NaCl, 1 mM EDTA, 0.05% Tween 20, FP at 10 min, three independent experiments in technical triplicates

Structure (SMILES) | binding to the N‐SH2 domain, in words (SHP2 N‐SH2 domain) | Kd (SHP2 N‐SH2 domain) [µM] | binding to the C‐SH2 domain, in words (SHP2 C‐SH2 domain) | Kd (SHP2 C‐SH2 domain; [1]) [µM] | K D ± SEM, C‐SH2 (FP) (SHP2 C‐SH2 domain; [1])
CC[C@H](C)[C@H](NC(=O)[C@@H](NC(=O)[C@H](C)NC(=O)[C@H](Cc1ccc(C(F)(F)P(=O)(O)O)cc1)NC(=O)[C@H](CCC(=O)O)NC(=O)[C@@H](NC(=O)[C@H](CCC(N)=O)NC(=O)[C@H](CCC(=O)O)NC(=O)c1ccc2c(c1)C(=O)OC21c2ccc(O)cc2Oc2cc(O)ccc21)[C@@H](C)O)[C@@H](C)O)C(=O)N[C@H](C(=O)N[C@@H](Cc1ccccc1)C(=O)N1CCC[C@H]1C(N)=O)C(C)C [FAM‐ITSM(F2Pmp)] (5FAM-EQTE[F2Pmp]ATIVFP-NH2) | slightly better binding than FAM‐ITSM(L‐OMT) | 1.39 ± 0.063 | marked decrease in binding affinity | > 2 | –
CC[C@H](C)[C@H](NC(=O)[C@@H](NC(=O)[C@H](C)NC(=O)[C@H](Cc1ccc(OC(C(=O)O)C(=O)O)cc1)NC(=O)[C@H](CCC(=O)O)NC(=O)[C@@H](NC(=O)[C@H](CCC(N)=O)NC(=O)[C@H](CCC(=O)O)NC(=O)c1ccc2c(c1)C(=O)OC21c2ccc(O)cc2Oc2cc(O)ccc21)[C@@H](C)O)[C@@H](C)O)C(=O)N[C@H](C(=O)N[C@@H](Cc1ccccc1)C(=O)N1CCC[C@H]1C(N)=O)C(C)C [FAM‐ITSM(L‐OMT)] (5FAM-EQTEY(X1)ATIVFP-NH2) | – | 1.71 ± 0.105 | retained binding | 0.257 ± 0.0083 | –
CC[C@H](C)[C@H](NC(=O)[C@@H](NC(=O)[C@H](C)NC(=O)[C@H](Cc1ccc(CP(=O)(O)O)cc1)NC(=O)[C@H](CCC(=O)O)NC(=O)[C@@H](NC(=O)[C@H](CCC(N)=O)NC(=O)[C@H](CCC(=O)O)NC(=O)c1ccc2c(c1)C(=O)OC21c2ccc(O)cc2Oc2cc(O)ccc21)[C@@H](C)O)[C@@H](C)O)C(=O)N[C@H](C(=O)N[C@@H](Cc1ccccc1)C(=O)N1CCC[C@H]1C(N)=O)C(C)C [FAM‐ITSM(Pmp)] (5FAM-EQTE[Pmp]ATIVFP-NH2) | greatly reduced binding | > 10 | marked decrease in binding affinity | > 2 | –
CC[C@H](C)[C@H](NC(=O)[C@@H](NC(=O)[C@H](C)NC(=O)[C@H](Cc1ccc(OP(=O)(O)O)cc1)NC(=O)[C@H](CCC(=O)O)NC(=O)[C@@H](NC(=O)[C@H](CCC(N)=O)NC(=O)[C@H](CCC(=O)O)NC(=O)c1ccc2c(c1)C(=O)OC21c2ccc(O)cc2Oc2cc(O)ccc21)[C@@H](C)O)[C@@H](C)O)C(=O)N[C@H](C(=O)N[C@@H](Cc1ccccc1)C(=O)N1CCC[C@H]1C(N)=O)C(C)C [FAM‐ITSM(pTyr), reference compound] (5FAM-EQTE[pY]ATIVFP-NH2) | – | 0.164 ± 0.0195 | – | 0.0489 | –
CC[C@H](C)[C@H](NC(=O)[C@@H](NC(=O)[C@H](C)NC(=O)[C@H](Cc1ccc(OP(=O)(O)O)cc1)NC(=O)[C@H](C)NC(=O)[C@@H](NC(=O)[C@H](CCC(N)=O)NC(=O)[C@H](CCC(=O)O)NC(=O)c1ccc2c(c1)C(=O)OC21c2ccc(O)cc2Oc2cc(O)ccc21)[C@@H](C)O)[C@@H](C)O)C(=O)N[C@H](C(=O)N[C@@H](Cc1ccccc1)C(=O)N1CCC[C@H]1C(N)=O)C(C)C [compound 4] (5FAM-EQTA[pY]ATIVFP-NH2) | – | 0.234 ± 0.0176 | – | 0.0951 ± 0.0144 | –
CC[C@H](C)[C@H](NC(=O)[C@H](C)NC(=O)[C@H](C)NC(=O)[C@H](Cc1ccc(OP(=O)(O)O)cc1)NC(=O)[C@H](CCC(=O)O)NC(=O)[C@@H](NC(=O)[C@H](CCC(N)=O)NC(=O)[C@H](CCC(=O)O)NC(=O)c1ccc2c(c1)C(=O)OC21c2ccc(O)cc2Oc2cc(O)ccc21)[C@@H](C)O)C(=O)N[C@H](C(=O)N[C@@H](Cc1ccccc1)C(=O)N1CCC[C@H]1C(N)=O)C(C)C [compound 5] (5FAM-EQTE[pY]AAIVFP-NH2) | – | 1.14 ± 0.585 | – | 0.126 ± 0.0062 | –
CC(C)[C@H](NC(=O)[C@H](C)NC(=O)[C@@H](NC(=O)[C@H](C)NC(=O)[C@H](Cc1ccc(OP(=O)(O)O)cc1)NC(=O)[C@H](CCC(=O)O)NC(=O)[C@@H](NC(=O)[C@H](CCC(N)=O)NC(=O)[C@H](CCC(=O)O)NC(=O)c1ccc2c(c1)C(=O)OC21c2ccc(O)cc2Oc2cc(O)ccc21)[C@@H](C)O)[C@@H](C)O)C(=O)N[C@@H](Cc1ccccc1)C(=O)N1CCC[C@H]1C(N)=O [compound 6] (5FAM-EQTE[pY]ATAVFP-NH2) | – | > 10 | – | – | no binding
CC[C@H](C)[C@H](NC(=O)[C@@H](NC(=O)[C@H](C)NC(=O)[C@H](Cc1ccc(OP(=O)(O)O)cc1)NC(=O)[C@H](CCC(=O)O)NC(=O)[C@@H](NC(=O)[C@H](CCC(N)=O)NC(=O)[C@H](CCC(=O)O)NC(=O)c1ccc2c(c1)C(=O)OC21c2ccc(O)cc2Oc2cc(O)ccc21)[C@@H](C)O)[C@@H](C)O)C(=O)N[C@@H](C)C(=O)N[C@@H](Cc1ccccc1)C(=O)N1CCC[C@H]1C(N)=O [compound 7] (5FAM-EQTE[pY]ATIAFP-NH2) | – | 1.08 ± 0.084 | – | > 2 | –
CC[C@H](C)[C@H](NC(=O)[C@@H](NC(=O)[C@H](C)NC(=O)[C@H](Cc1ccc(OP(=O)(O)O)cc1)NC(=O)[C@H](CCC(=O)O)NC(=O)[C@@H](NC(=O)[C@H](CCC(N)=O)NC(=O)[C@H](CCC(=O)O)NC(=O)c1ccc2c(c1)C(=O)OC21c2ccc(O)cc2Oc2cc(O)ccc21)[C@@H](C)O)[C@@H](C)O)C(=O)N[C@H](C(=O)N[C@@H](C)C(=O)N1CCC[C@H]1C(N)=O)C(C)C [compound 8] (5FAM-EQTE[pY]ATIVAP-NH2) | – | > 2 | – | 0.185 ± 0.0308 | –
CC[C@H](C)[C@H](NC(=O)[C@@H](NC(=O)[C@H](C)NC(=O)[C@H](Cc1ccc(OP(=O)(O)O)cc1)NC(=O)[C@H](CCC(=O)O)NC(=O)[C@@H](NC(=O)[C@H](CCC(N)=O)NC(=O)c1ccc2c(c1)C(=O)OC21c2ccc(O)cc2Oc2cc(O)ccc21)[C@@H](C)O)[C@@H](C)O)C(=O)N[C@@H](CCCCN)C(=O)N[C@H](C(=O)N1CCC[C@H]1C(N)=O)[C@@H](C)CC [compound 12] (5FAM-QTE[pY]ATIKIP-NH2) | – | – | – | 0.141 ± 0.0062 | –
CC[C@H](C)[C@H](NC(=O)[C@@H](NC(=O)[C@H](C)NC(=O)[C@H](Cc1ccc(OP(=O)(O)O)cc1)NC(=O)[C@H](CCC(=O)O)NC(=O)[C@@H](NC(=O)[C@H](CCCCN)NC(=O)c1ccc2c(c1)C(=O)OC21c2ccc(O)cc2Oc2cc(O)ccc21)[C@@H](C)O)[C@@H](C)O)C(=O)N[C@@H](CCCCN)C(=O)N[C@@H](Cc1c[nH]cn1)C(=O)N1CCC[C@H]1C(N)=O [compound 19] (5FAM-KTE[pY]ATIKHP-NH2) | – | – | – | 0.105 ± 0.0036 | –
CC[C@H](C)[C@H](NC(=O)[C@@H](NC(=O)[C@H](C)NC(=O)[C@H](Cc1ccc(OP(=O)(O)O)cc1)NC(=O)[C@H](CCC(=O)O)NC(=O)[C@H](CCC(=O)O)NC(=O)[C@H](CCCCN)NC(=O)c1ccc2c(c1)C(=O)OC21c2ccc(O)cc2Oc2cc(O)ccc21)[C@@H](C)O)C(=O)N[C@@H](CCCCN)C(=O)N[C@@H](Cc1c[nH]cn1)C(=O)N1CCC[C@H]1C(N)=O [compound 20] (5FAM-KEE[pY]ATIKHP-NH2) | – | – | – | > 0.5 | –
